Experimental data reported in ChEMBL document CHEMBL1153383, “Novel 2- and 4-substituted 1H-imidazo[4,5-c]quinolin-4-amine derivatives as allosteric modulators of the A3 adenosine receptor” (J Med Chem, 2009).

Tests used:
[1] = molecular target: T1, Adenosine receptor A3 (Homo sapiens) (UniProt P0DMS8); test: Displacement of [125I]I-AB-MECA from human recombinant adenosine A3 receptor expressed in CHO cells at 10 uM; assay type: cell-based
T1 sequence (whole entry): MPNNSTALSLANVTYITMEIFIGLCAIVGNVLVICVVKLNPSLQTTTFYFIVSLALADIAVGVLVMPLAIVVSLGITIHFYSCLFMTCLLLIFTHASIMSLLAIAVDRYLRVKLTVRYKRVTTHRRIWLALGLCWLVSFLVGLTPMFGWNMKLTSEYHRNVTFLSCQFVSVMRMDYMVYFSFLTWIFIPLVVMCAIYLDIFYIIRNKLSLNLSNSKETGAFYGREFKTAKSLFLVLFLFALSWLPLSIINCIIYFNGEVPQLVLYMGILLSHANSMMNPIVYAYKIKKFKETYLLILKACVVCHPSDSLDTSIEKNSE

[2] = molecular target: Adenosine receptor A2a (Homo sapiens) (UniProt P29274); test: Displacement of [3H]CGS21680 from human recombinant adenosine A2A receptor expressed in HEK293 cells at 10 uM; assay type: cell-based
[3] = molecular target: T1, Adenosine receptor A3 (Homo sapiens); test: Decrease in dissociation of [125I]I-AB-MECA from human recombinant adenosine A3 receptor expressed in CHO cells at 10 uM after 60 mins relative to control; assay type: cell-based; parameters: scale not given: the % may be the effect or the level left
[4] = molecular target: T2, Adenosine receptor A1 (Homo sapiens) (UniProt P30542); test: Displacement of [3H]CCPA from human recombinant adenosine A1 receptor expressed in CHO cells at 10 uM; assay type: cell-based
T2 sequence (whole entry): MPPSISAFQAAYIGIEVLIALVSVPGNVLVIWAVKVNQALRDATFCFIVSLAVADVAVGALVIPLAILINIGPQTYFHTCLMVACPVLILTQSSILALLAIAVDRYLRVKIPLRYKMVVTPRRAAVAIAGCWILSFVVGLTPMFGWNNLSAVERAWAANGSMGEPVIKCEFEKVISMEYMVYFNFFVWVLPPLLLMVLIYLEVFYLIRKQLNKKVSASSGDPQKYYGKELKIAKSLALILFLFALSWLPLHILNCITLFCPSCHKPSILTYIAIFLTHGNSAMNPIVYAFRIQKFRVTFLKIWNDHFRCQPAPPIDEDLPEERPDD

[5] = molecular target: T1, Adenosine receptor A3 (Homo sapiens); test: Increase in efficacy of stimulation of [35S]GTPgammaS binding to human adenosine A3 receptor expressed in CHO cells at 10 uM by liquid scintillation counting relative to C1-IB-MECA; assay type: functional, cell-based

Adenosine receptor A2a (Homo sapiens), sequence (P29274 whole entry): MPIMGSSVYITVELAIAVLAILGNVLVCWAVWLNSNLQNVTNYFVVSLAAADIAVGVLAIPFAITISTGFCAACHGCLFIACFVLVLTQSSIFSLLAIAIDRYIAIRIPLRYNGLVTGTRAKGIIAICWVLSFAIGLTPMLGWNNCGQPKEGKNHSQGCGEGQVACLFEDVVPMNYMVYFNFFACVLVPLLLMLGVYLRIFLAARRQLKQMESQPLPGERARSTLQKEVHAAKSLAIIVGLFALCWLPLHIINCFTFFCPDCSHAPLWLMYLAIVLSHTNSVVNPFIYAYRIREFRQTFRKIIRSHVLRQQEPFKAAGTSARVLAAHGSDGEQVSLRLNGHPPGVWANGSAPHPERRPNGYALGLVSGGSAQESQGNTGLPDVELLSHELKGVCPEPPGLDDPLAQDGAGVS

SMILES	Activity [1] [%]	Activity [2] [%]	Activity [3] [%]	Activity [4] [%]	Activity [5] [%]
Clc1ccc(Nc2nc3ccccc3c3[nH]c(C4CCCCC4)nc23)c(Cl)c1	43.9	67.2	174	48	187
FC(F)(F)c1cc(Nc2nc3ccccc3c3nc(C4CCCCC4)[nH]c23)cc(C(F)(F)F)c1	21.8	15.6	137	7.2	143
O=C(c1ccccc1)N1CCC(c2nc3c(Nc4ccc(Cl)c(Cl)c4)nc4ccccc4c3[nH]2)CC1	29.8	8.8	91	20.2	–
Clc1ccc(Nc2nc3ccccc3c3[nH]c(C4CCC4)nc23)cc1Cl	–	–	–	-5.2	–
Clc1ccc(Nc2nc3ccccc3c3[nH]c([C@H]4C[C@H]5CC[C@H]4C5)nc23)cc1Cl	50.5	39.4	168	44.8	–
c1cncc(Nc2nc3ccccc3c3[nH]c(C4CCCCC4)nc23)c1	64.8	78.1	114	73.1	119
O=C1c2ccccc2C(=O)N1[C@H]1CC[C@@H](c2nc3c(Nc4ccc(Cl)c(Cl)c4)nc4ccccc4c3[nH]2)CC1	5.6	56.8	102	21.4	–
Clc1ccc(Nc2nc3ccccc3c3[nH]c(C4CCNCC4)nc23)cc1Cl	52.8	7	101	10.9	–
Clc1cc(Cl)cc(Nc2nc3ccccc3c3[nH]c(C4CCCCC4)nc23)c1	32.7	-11.4	184	16.7	209
Clc1ccc(Nc2nc3ccccc3c3[nH]c(C45CC6CC(CC(C6)C4)C5)nc23)cc1Cl	17.2	-4.4	196	13.8	–
O=C(c1ccccc1)N1CCC(c2nc3c(Nc4ccccc4)nc4ccccc4c3[nH]2)CC1	35.3	43.4	92	12.4	–
Clc1ccc(Nc2nc3ccccc3c3[nH]c(C4CCN(Cc5ccccc5)CC4)nc23)cc1Cl	46.3	-3.1	93	17.8	–
Clc1ccc(Nc2nc3ccccc3c3[nH]c([C@H]4C[C@H]5CC[C@@H]4C5)nc23)cc1Cl	61.2	5.8	187	77.9	–
Fc1cc(F)cc(Nc2nc3ccccc3c3[nH]c(C4CCCCC4)nc23)c1	70.1	17.2	188	36.6	171
Clc1ccc(Nc2nc3ccccc3c3nc(C4CCCCC4)[nH]c23)cc1Cl	–	-11.2	–	37	–
Clc1ccc(Nc2nc3ccccc3c3[nH]c(C45CC6CC(CC4C6)C5)nc23)cc1Cl	3.3	-17.3	139	14.5	–
Fc1ccc(Nc2nc3ccccc3c3[nH]c(C4CCCCC4)nc23)cc1F	68.8	26.5	187	14.6	197
Clc1cccc(Nc2nc3ccccc3c3[nH]c(C4CCCCC4)nc23)c1	79.2	42.8	194	53.3	200
Clc1ccc(Nc2nc3ccccc3c3[nH]c(C4CCCCCC4)nc23)cc1Cl	–	-2.2	–	-4.2	–
COc1ccc(Nc2nc3ccccc3c3[nH]c(C4CCCCC4)nc23)cc1OC	98.4	93.8	173	75.6	182
Clc1ccc(Nc2nc3ccccc3c3[nH]c(C4CCOCC4)nc23)cc1Cl	69.6	-11.9	115	37.2	–
Clc1ccc(Nc2nc3ccccc3c3[nH]c(C4CCCC4)nc23)cc1Cl	–	0	–	–	–
c1ccc2c(c1)nc(Nc1ccc3c(c1)OCO3)c1nc(C3CCCCC3)[nH]c12	83.9	49	185	65.4	166
N[C@H]1CC[C@@H](c2nc3c(Nc4ccc(Cl)c(Cl)c4)nc4ccccc4c3[nH]2)CC1	4.2	15.8	107	31.7	–
N#Cc1ccc(Nc2nc3ccccc3c3nc(C4CCCCC4)[nH]c23)cc1C#N	42.2	37.2	129	33.1	138
